Measured values as given in patent publication US12403086B2, “Solid drug tablets for implantable drug delivery devices” (TARIS Biomedical LLC, priority 2009, dated 2025).

Tests used:
[1] = In vitro drug release from silicone tube devices loaded with lidocaine base tablets, with varying numbers of apertures; format: physicochemical; details: silicone tubes about 3 cm, payload about 60 mg, in vitro in water at about 37° C.
Experimental: Another study was performed to investigate the feasibility of delivering drug from a device through both a wall of a drug reservoir and from an aperture in the wall of the drug reservoir. Devices were formed form silicone tubes having a length of about 3 cm. The devices were loaded with solid drug tablets of lidocaine base, for a total payload of about 60 mg. […] The devices were tested in vitro in water at about 37° C.

[2] = In vitro drug release from silicone tube devices loaded with solid lidocaine tablets (diffusion through the wall of the drug reservoir); format: physicochemical; details: silicone tube ID about 0.060 in, OD 0.076 in, length about 3 cm, payload about 60 mg, no aperture; in vitro in water at about 37° C.
Experimental: A study was performed to determine the feasibility of delivering drug through the wall of a drug reservoir via diffusion. Devices were formed form silicone tubes having an inner diameter of about 0.060 inches, an outer diameter of 0.076 inches, and a length of about 3 cm. The devices were loaded with solid drug tablets of lidocaine, for a total payload of about 60 mg. Some of the devices included an aperture formed through the tube wall, the aperture having a diameter of 150 μm. These devices were loaded with solid tablets of either lidocaine hydrochloride monohydrate or a combination of lidocaine hydrochloride monohydrate and lidocaine base. […] The devices were tested in vitro in water at about 37° C.

CCN(CC)CC(=O)Nc1c(C)cccc1C [lidocaine base, lidocaine]
release from silicone tube without apertures ([1]; no apertures (ID 0.060/OD 0.076 in and ID 0.062/OD 0.095 in)): can be released from a silicone tube without any apertures | effect of apertures on release rate ([1]; 0, 1 (150 μm), 2, 30 or 60 (360 μm) apertures): release rate can be increased by adding apertures to the device | delivery of drug via diffusion through the silicone wall of the drug reservoir [2]: feasible to deliver drug via diffusion through a silicone wall without an aperture
